Patent US20060234990A1, “Compositions of boswellic acids derived from Boswellia serrata gum resin, for treating lymphoproliferative and autoimmune conditions” (SAMI LABS LTD., priority 2000, published 2006)

How the values were obtained:
HL-60 cells [1] = test: DNA synthesis ([3H]thymidine incorporation) in HL-60 cells; format: cell-based; conditions: Homo sapiens; cultured HL-60 cells incubated for 2 hours; read-out: 50% inhibitory activity on the incorporation of [3H]-thymidine into DNA
From the text: (§1) FIGS. 1, 2, and 3 show the inhibitory effects of compounds I-IV on the DNA, RNA and protein synthesis of HL-60 cells, respectively (in FIG. 1-3, lines 1, 2, 3 and 4 refer to the data of compounds I, II, III and IV, respectively). Tables 1 and 2 show the inhibitory effect of a “total organic acids” extract of the exudate of Boswellia serrata on DNA, RNA and protein synthesis or growth in HL-60 cells. […] The initial rates of incorporation of [^3H]-thymidine, [^3H]-uridine and [^3H]-leucine into trichloroacetic acid (TCA)-insoluble material were utilized to estimate the rates of DNA, RNA, and protein synthesis, respectively, in HL-60 cells. […] the inhibitory effects of compounds I-IV and the alcoholic extract on DNA. RNA and protein synthesis of HL-60 cells were in a dose-dependent manner. […] 0.9 and 0.6 μM, respectively, the incorporation of [3H]-uridine at concentrations of 7.1, 2.3. 2.2 and 0.5 μM, respectively, and the incorporation of [3H]-leucine into protein at concentrations of 6.3, 5.4, 5.1 and 4.1 μM, respectively, in cultured HL-60 cells incubated for 2 hours.
(§2) Various concentrations of the Boswellia serrata extract, as indicated above, were added to 1 mL of HL-60 cells suspended in RPMI medium. [^3H]thymidine (50 μCi/μmol: […]), [^3H]uridine (55 μCi/μmol; 5 μL), [^3H]leucine (200 μCi/μmol: 10 μL), were added to the cell suspension and incubated at 37° C. for 120 min. Reactions were terminated by addition of 3 mL of cold PBS, and the rates of DNA. RNA, and protein synthesis were determined.
[^3H]Thymidine (3 μL; 50 μCi/μmol), vehicle or various concentrations of BSE in vehicle were added to 1 mL of HL-60 cells (5×10^5 cells/mL) in culture, and the cultures were incubated at 37° C. for 120 min. Data are expressed as the mean±SE calculated from triplicate studies. Data in parentheses are the percent inhibition of [^3H]thymidine incorporation into the DNA of HL-60 cells.

HL-60 cells [2] = test: RNA synthesis ([3H]uridine incorporation) in HL-60 cells; format: cell-based; conditions: Homo sapiens; cultured HL-60 cells incubated for 2 hours; read-out: 50% inhibitory activity on the incorporation of [3H]-uridine
From the text: as §1, §2

HL-60 cells [3] = test: Protein synthesis ([3H]leucine incorporation) in HL-60 cells; format: cell-based; conditions: Homo sapiens; cultured HL-60 cells incubated for 2 hours; read-out: 50% inhibitory activity on the incorporation of [3H]-leucine into protein
From the text: as §1, §2

[4] = Cell viability of HL-60 cells, trypan blue exclusion method; format: cell-based; conditions: human, 4 days incubation
Protocol: (§3) The effect of compound IV on cellular growth of HL-60 cells was tested. […] In order to test whether this growth was the result of cell cytotoxicity, the effects of this compound on cell viability were examined after 4 days incubation using the trypan blue exclusion method. The cells viability at concentrations of 0, 1, 4, 16 μM were 97.0, 96.8, 96.5, or 96.7%, respectively.

human leukocyte elastase = molecular target: T1, human leukocyte elastase (Homo sapiens, UniProt P08246); conditions: in vitro; Safayhi et al (1997); cited from earlier work
T1 sequence (P08246 30-267): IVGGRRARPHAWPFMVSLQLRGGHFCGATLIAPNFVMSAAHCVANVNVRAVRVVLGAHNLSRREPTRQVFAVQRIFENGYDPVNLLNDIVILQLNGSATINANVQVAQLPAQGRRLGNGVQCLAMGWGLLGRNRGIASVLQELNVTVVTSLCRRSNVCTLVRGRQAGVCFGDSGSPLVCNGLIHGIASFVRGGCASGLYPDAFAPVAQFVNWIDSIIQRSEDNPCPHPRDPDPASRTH

HL-60 cells [5] = test: Reversibility of DNA synthesis inhibition after preincubation and washing; format: cell-based, human; conditions: preincubated at 2 and 8 μM for 30 min at 37° C., washed with PBS
Protocol: In this experiment HL-60 cells were preincubated with compound IV at 2 and 8 μM for 30 min at 37° C., washed with phosphate buffer saline and [3H]-thymidine was added to the culture. At desired times, the reactions were terminated and the rates of DNA synthesis were determined.

HL-60 cells [6] = test: Cellular growth of HL-60 cells in culture; format: cell-based; conditions: Homo sapiens, HL-60, 96 h, 37° C., 4 days
Protocol: as §3
Various concentrations of BSE, as indicated above, were added to the HL-60 cell cultures. These cultures were counted daily using a hemacytometer under a microscope with 10× magnification every 24 hours. Data are expressed as the mean=SE calculated from triplicate studies. Data in parentheses are the percent inhibition of cell growth.

| Structure (SMILES) | IC50 (HL-60 cells [1]) [nM] | IC50 (HL-60 cells [2]) [nM] | IC50 (HL-60 cells [3]) [µM] | viability at 4 days, 1 µM ([4]; 1 μM) [%] | viability at 4 days, 4 µM ([4]; 4 μM) [%] | viability at 4 days, 16 µM ([4]; 16 μM) [%] | IC50 (human leukocyte elastase) [µM] | inhibitory action on DNA synthesis after washing (HL-60 cells [5]) | inhibition at 1 µM (HL-60 cells [6]; 1 μM) [%] | inhibition at 4 µM (HL-60 cells [6]; 4 μM) [%] | inhibition at 16 µM (HL-60 cells [6]; 16 μM) [%] |
| --- | --- | --- | --- | --- | --- | --- | --- | --- | --- | --- | --- |
| CC1CCC2(C)CCC3(C)C(=CCC4(C)C3CCC3C(C)(C(=O)O)C(O)CCC34C)C2C1C (stereo not drawn) [I, β-Boswellic Acid] | 3700 | 7100 | 6.3 |  |  |  |  |  |  |  |  |
| CC(=O)OC1CCC2(C)C(CCC3C4(C)CCC5(C)CCC(C)C(C)C5C4=CC(=O)C32C)C1(C)C(=O)O (stereo not drawn) [IV, Acetyl-11-keto-β-Boswellic Acid] | 600 | 500 | 4.1 | 96.8 | 96.5 | 96.7 | ~15 | irreversible | 54.5 | 71.8 | 98.6 |
| CC1CCC2(C)CCC3(C)C(=CC(=O)C4(C)C3CCC3C(C)(C(=O)O)C(O)CCC34C)C2C1C (stereo not drawn) [III, 11-keto-β-Boswellic Acid] | 900 | 2200 | 5.1 |  |  |  |  |  |  |  |  |
| CC(=O)OC1CCC2(C)C(CCC3C4(C)CCC5(C)CCC(C)C(C)C5C4=CCC32C)C1(C)C(=O)O (stereo not drawn) [II, Acetyl-β-Boswellic Acid] | 1400 | 2300 | 5.4 |  |  |  |  |  |  |  |  |
